# Laboratory results taken from ChEMBL document CHEMBL3352123, “Structure activity relationship study of curcumin analogues toward the amyloid-beta aggregation inhibitor” (Bioorg Med Chem Lett, 2014).
# Key:
# [1] = target: Amyloid-beta precursor protein (Homo sapiens) (UniProt P05067); assay: Inhibition of amyloid beta-42 self-aggregation (unknown origin) at 25 uM after 20 hrs by ThT fluorescence assay
# [2] = Aqueous solubility of the compound after 12 hrs by shake-flask method; format: physicochemical; conditions: buffer
# Sequence of Amyloid-beta precursor protein (Homo sapiens) (P05067 whole entry): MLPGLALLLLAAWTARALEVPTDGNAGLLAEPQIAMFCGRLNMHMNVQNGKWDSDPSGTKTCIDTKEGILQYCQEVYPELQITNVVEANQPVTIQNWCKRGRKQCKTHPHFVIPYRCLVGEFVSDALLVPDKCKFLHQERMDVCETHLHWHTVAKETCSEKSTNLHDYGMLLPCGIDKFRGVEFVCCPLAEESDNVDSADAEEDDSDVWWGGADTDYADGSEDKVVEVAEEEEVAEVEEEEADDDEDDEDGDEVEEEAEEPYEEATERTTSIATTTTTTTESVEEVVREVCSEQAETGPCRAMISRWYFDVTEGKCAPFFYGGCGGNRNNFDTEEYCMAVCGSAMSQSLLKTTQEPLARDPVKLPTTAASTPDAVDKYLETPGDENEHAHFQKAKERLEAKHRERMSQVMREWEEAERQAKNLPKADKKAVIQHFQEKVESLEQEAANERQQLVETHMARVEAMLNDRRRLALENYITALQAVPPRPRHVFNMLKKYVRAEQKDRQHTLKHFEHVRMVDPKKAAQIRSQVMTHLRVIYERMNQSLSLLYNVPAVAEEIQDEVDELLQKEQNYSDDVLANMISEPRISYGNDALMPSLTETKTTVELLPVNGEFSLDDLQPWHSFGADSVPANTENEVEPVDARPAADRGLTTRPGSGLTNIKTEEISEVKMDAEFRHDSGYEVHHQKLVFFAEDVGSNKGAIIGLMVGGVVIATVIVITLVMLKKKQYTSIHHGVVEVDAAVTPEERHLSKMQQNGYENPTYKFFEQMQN
Compound,inhibition [1],solubility thermodynamic at 12 h [2]
O=C(/C=C/c1ccc(O)cc1)CC(=O)/C=C/c1ccc(O)c(O)c1,89%,0.66 µM
COc1ccc(/C=C/C(=O)CC(=O)/C=C/c2ccc(O)c(O)c2)cc1,95%,0.009 µM
O=C(/C=C/c1ccccc1O)CC(=O)/C=C/c1ccccc1O,80%,–
O=C(/C=C/c1cccc(O)c1)CC(=O)/C=C/c1ccc(O)c(O)c1,99%,6.2 µM
O=C(/C=C/c1ccc(O)c(O)c1)CC(=O)/C=C/c1ccccc1O,100%,31 µM
COc1cc(/C=C/C(=O)C(C)(C)C(=O)/C=C/c2ccc(O)c(OC)c2)ccc1O,30%,12 µM
O=C(/C=C/c1ccc(O)c(O)c1)CC(=O)/C=C/c1ccc(O)c(O)c1 [DIDEMETHYLCURCUMIN],99%,2.4 µM
COc1cc(/C=C/C(=O)CC(=O)/C=C/c2ccc(O)c(O)c2)cc(OC)c1OC,95%,–
O=C(/C=C/c1cccc([N+](=O)[O-])c1)CC(=O)/C=C/c1ccc(O)c(O)c1,97%,–
Oc1ccc(/C=C/c2cc(/C=C/c3ccccc3O)[nH]n2)cc1O,47%,16 µM
COc1cccc(/C=C/C(=O)CC(=O)/C=C/c2ccc(O)c(O)c2)c1,95%,0.11 µM
COc1ccc(/C=C/C(=O)/C=C(O)/C=C/c2ccc(OC)c(OC)c2)cc1OC,0%,–
COc1ccccc1/C=C/C(=O)CC(=O)/C=C/c1ccc(O)c(O)c1,100%,0.12 µM
O=C(/C=C/c1cc(O)c(O)c(O)c1)CC(=O)/C=C/c1cc(O)c(O)c(O)c1,46%,6.2 µM
N#Cc1cccc(/C=C/C(=O)CC(=O)/C=C/c2ccc(O)c(O)c2)c1,96%,–
Oc1ccc(/C=C/c2cc(/C=C/c3ccc(O)c(O)c3)[nH]n2)cc1O,90%,98 µM
COc1cc(/C=C/C(=O)CC(=O)/C=C/c2ccc(O)c(OC)c2)ccc1O [CURCUMIN],80%,0.19 µM
O=C(/C=C/c1ccc(O)c(O)c1)CC(=O)/C=C/c1cc(O)c(O)c(O)c1,100%,50 µM
Oc1cccc(/C=C/c2cc(/C=C/c3ccc(O)c(O)c3)n[nH]2)c1,–,10 µM
O=C(/C=C/c1ccc(O)cc1)CC(=O)/C=C/c1ccc(O)cc1,75%,–
COc1cc(/C=C/c2cc(/C=C/c3ccc(O)c(OC)c3)[nH]n2)ccc1O [CURCUMIN PYRAZOLE],51%,1.2 µM
O=C(/C=C/c1cc(O)c(O)c(O)c1)CC(=O)/C=C/c1ccccc1O,73%,47 µM
O=C(/C=C/c1cccc(O)c1)CC(=O)/C=C/c1cccc(O)c1,79%,–
COc1c(O)cc(/C=C/C(=O)CC(=O)/C=C/c2ccc(O)c(O)c2)cc1O,100%,5.4 µM
